We go through 25 molecules from patent US7655654B2, “Farnesyl transferase inhibiting tricyclic quinazoline derivatives substituted with carbon-linked imidazoles or triazoles” (Janssen Pharmaceutica NV, priority 2002, dated 2010).

Data set [1] deals with farnesyl protein transferase (Homo sapiens, UniProt P49354+P49356). The data set is described as follows: In vitro assay for inhibition of farnesyl protein transferase. The format is biochemical. Particulars: for inhibition at 0.1 µM / % of inhibition at 10^−7 M: at 10^−7 M; for IC50 / Enzyme activity pIC50: negative log value of the IC50-value; for IC50: read-out: Enzyme activity pIC50 (converted). On the procedure:
Example C.1: “In Vitro Assay for Inhibition of Farnesyl Protein Transferase”:
An in vitro assay for inhibition of farnesyl transferase was performed essentially as described in WO 98/40383, pages 33-34. Herein the effects of test compounds are expressed as pIC50 (the negative log value of the IC50-value) and as % of inhibition at 10^−7 M (see Table F-2)

The structures appear in SMILES notation.

Broadly, the melting point is the temperature of the solid-liquid transition. Usually inhibition stands for how much of the control response was suppressed. Low readings indicate a response near the control, high ones a response far below the control.

As for `Cn1cncc1[C@](N)(c1ccc(Cl)cc1)c1ccc2c(c1)C(c1cccc(Cl)c1)n1nnnc1N2` (stereo partly drawn) [Compound 23], the melting point was > 250 °C. In data set [1], testing at 0.1 µM gave an inhibition of 98% and the IC50 was 2.54 nM.
For `CN1c2ccc(C(O)(c3ccc(Cl)cc3)c3cncn3C)cc2C(c2cccc(Cl)c2)n2nnnc21` (mixture of isomers) [Compound 19], in data set [1], the inhibition at 0.1 µM was found to be 92% and the IC50 was 9.71 nM.
For `Cc1ccc(C(N)(c2ccc3c(c2)C(c2cccc(Cl)c2)n2nnnc2N3)c2cncn2C)cc1` (single isomer, unassigned) [Compound 4, 9-(3-chlorophenyl)-4,9-dihydro-α-(1-methyl-1H-imidazol-5-yl)-α-(4-methylphenyl)-tetrazolo[5,1-b]quinazoline-7-methanamine], in data set [1], the “% of inhibition at 10^−7 M” value came out at 74% and the IC50 was 34.6 nM.
`Cn1cncc1C(O)(c1ccc(F)cc1)c1ccc2c(c1)C(c1cccc(Cl)c1)n1nnnc1N2` (stereo not drawn) [Compound 2, 9-(3-chlorophenyl)-α-(4-fluorophenyl)4,9-dihydro-α-(1-methyl-1H-imidazol-5-yl)-tetrazolo[5,1-b]quinazoline-7-methanol] returned a melting point of 180 °C. Further, in data set [1], the inhibition at 0.1 µM amounted to 96% and the IC50 is 1.77 nM.
Regarding `COc1ccc(C(O)(c2ccc3c(c2)C(c2cccc(Cl)c2)n2nnnc2N3C)c2cncn2C)cc1` (mixture of isomers) [Compound 6], in data set [1], the “% of inhibition at 10^−7 M” value worked out at 90% and the IC50 is 14.1 nM.
On to `Cn1cncc1C(O)(c1ccc(Cl)cc1)c1ccc2c(c1)C(c1cccc(Cl)c1)n1nnnc1N2` (stereo not drawn) [Compound 1, 9-(3-chlorophenyl)-α-(4-chlorophenyl)4,9-dihydro-α-(1-methyl-1H-imidazol-5-yl)-tetrazolo[5,1-b]quinazoline-7-methanol], for which the melting point is > 260 °C. Further, in data set [1], 0.1 µM produced 81% inhibition and the IC50 was 25.4 nM.
For the molecule `COc1ccc(C(c2ccc3c(c2)C(c2cccc(Cl)c2)n2nnnc2N3C)c2cncn2C)cc1` (mixture of isomers) [Compound 20], the melting point is 108 °C. Also, in data set [1], testing at 0.1 µM gave an inhibition of 91% and the IC50 is 9.2 nM.
`Cn1cncc1[C@@](N)(c1ccc(Cl)cc1)c1ccc2c(c1)C(c1cccc(Cl)c1)n1nnnc1N2` (single isomer, unassigned) [Compound 12] had a melting point of 162 °C. In data set [1], the “% of inhibition at 10^−7 M” value came to 42% and the “Enzyme activity pIC50” value is <7.
Regarding `Cn1cncc1[C@](N)(c1ccc(Cl)cc1)c1ccc2c(c1)C(c1cccc(Cl)c1)n1nnnc1N2` (stereo partly drawn) [Compound 24], the melting point is 183 °C. For the same molecule, in data set [1], the “% of inhibition at 10^−7 M” value is on record as 88% and the IC50 was 11.7 nM.
Molecule `COc1ccc(C(O)(c2ccc3c(c2)C(c2cccc(Cl)c2)n2nnnc2N3Cc2ccc(C#N)cc2)c2cncn2C)cc1` (mixture of isomers) [Compound 14] registered a melting point of 164 °C. Moreover, in data set [1], the inhibition at 0.1 µM stood at 74% and the IC50 is 18.6 nM.
Turning to `COc1ccc(C(O)(c2ccc3c(c2)C(c2cccc(Cl)c2)n2nnnc2N3)c2cncn2C)cc1` (stereo not drawn) [Compound 3, 9-(3-chlorophenyl)-4,9-dihydro-α-(4-methoxyphenyl)-α-(1-methyl-1H-imidazol-5-yl)-tetrazolo[5,1-]quinazoline-7-methanol], in data set [1], 0.1 µM produced 80% inhibition and the IC50 was 23.3 nM.
Take `Cn1cncc1C(O)(c1ccc(I)cc1)c1ccc2c(c1)C(c1cccc(Cl)c1)n1nnnc1N2` (mixture of isomers) [Compound 18]: the melting point stood at 225 °C. Moreover, in data set [1], the inhibition at 0.1 µM was found to be 76% and the IC50 was 29.9 nM.
For `COc1ccc(C(O)(c2ccc3c(c2)C(c2cccc(Cl)c2)n2nnnc2N3)c2cncn2C)cc1` (single isomer, unassigned) [Compound 7], the melting point is > 260 °C. Further, in data set [1], the “% of inhibition at 10^−7 M” value amounted to 64% and the IC50 is < 100 nM.
With `Cc1ccc(C(N)(c2ccc3c(c2)C(c2cccc(Cl)c2)n2nnnc2N3)c2cncn2C)cc1` (single isomer, unassigned) [Compound 5, 9-(3-chlorophenyl)-4,9-dihydro-α-(1-methyl-1H-imidazol-5-yl)-α-(4-methylphenyl)-tetrazolo[5,1-b]quinazoline-7-methanamine], in data set [1], the “% of inhibition at 10^−7 M” value turned out to be 99% and the IC50 was < 1 nM.
In turn, `Cn1cnnc1C(O)(c1ccc(I)cc1)c1ccc2c(c1)C(c1cccc(Cl)c1)n1nnnc1N2` (stereo not drawn) [Compound 17] returned a melting point of 195 °C. Also, in data set [1], the “% of inhibition at 10^−7 M” value turned out to be 42% and the “Enzyme activity pIC50” value is given as <7.
The molecule `CC(C)OC(=O)c1ccc(C(O)(c2ccc3c(c2)C(c2cccc(Cl)c2)n2nnnc2N3C)c2cncn2C)cc1` (mixture of isomers) [Compound 25] had a melting point of 165 °C. In data set [1], the inhibition at 0.1 µM came to 66% and the IC50 was < 100 nM.
Regarding `COc1ccc(C(O)(c2ccc3c(c2)C(c2cccc(Cl)c2)n2nnnc2N3)c2cncn2C)cc1` (single isomer, unassigned) [Compound 8], the melting point is 176 °C. In addition, in data set [1], the “% of inhibition at 10^−7 M” value is 88% and the IC50 is 12.4 nM.
Consider `Cn1cncc1[C@@](N)(c1ccc(Cl)cc1)c1ccc2c(c1)C(c1cccc(Cl)c1)n1nnnc1N2` (single isomer, unassigned) [Compound 11], for which the melting point is 242 °C. Besides, in data set [1], testing at 0.1 µM gave an inhibition of 46% and the IC50 was > 100 nM.
For `COc1ccc(C(O)(c2ccc3c(c2)C(c2cccc(Cl)c2)n2nnnc2N3C)c2cncn2C)cc1` (mixture of isomers) [Compound 15] the same measures were 144 °C, 88% and 16.6 nM.
As to `CCOC(c1ccc(Cl)cc1)(c1ccc2c(c1)C(c1cccc(Cl)c1)n1nnnc1N2)c1cncn1C` (stereo not drawn) [Compound 10], in data set [1], the inhibition at 0.1 µM is 43% and the IC50 was > 100 nM.
The molecule `CN1c2ccc(C(O)(c3ccc(I)cc3)c3cncn3C)cc2C(c2cccc(Cl)c2)n2nnnc21` (mixture of isomers) [Compound 21] displayed a melting point of 228 °C. In data set [1], 0.1 µM produced 78% inhibition and the IC50 was 19.1 nM.
Regarding `CCOC(=O)CN1c2ccc(C(O)(c3ccc(OC)cc3)c3cncn3C)cc2C(c2cccc(Cl)c2)n2nnnc21` (mixture of isomers) [Compound 13], the melting point was 126 °C. In data set [1], the inhibition at 0.1 µM is 80% and the IC50 is 25.4 nM.
For `Cn1cnnc1C(O)(c1ccc(I)cc1)c1ccc2c(c1)C(c1cccc(Cl)c1)n1nnnc1N2` (mixture of isomers) [Compound 16] the same measures were 226 °C, 45% and > 100 nM.
The matching figures for `CN1c2ccc(C(O)(c3ccc(I)cc3)c3nncn3C)cc2C(c2cccc(Cl)c2)n2nnnc21` (mixture of isomers) [Compound 22]: 181 °C, 57% and < 100 nM.
For `COc1ccc(C(O)(c2ccc3c(c2)C(c2cccc(Cl)c2)n2nnnc2N3CC2CC2)c2cncn2C)cc1` (stereo not drawn) [Compound 9] the same measures were 121 °C, 82% and 20.6 nM.
